In patent US20170315126A1, “METHOD FOR SCREENING COMPOUND SPECIFICALLY SUPPRESSING FORMATION OF CAVEOLAE OF CANCER CELLS, SCREENING KIT, VECTOR AND TRANSFORMANT TO BE USED IN KIT, AND METHOD FOR SELECTING PATIENT FOR WHOM MOLECULARLY TARGETED DRUG IS INDICATED” (NATIONAL UNIVERSITY CORPORATION NAGOYA INSTITUTE OF …, priority 2014, published 2017):
Like-named read-outs stand apart in the source and are kept apart here.

B1: human Caveolin 1 (other, UniProt Q03135 2-178, looked up)
chain: SGGKYVDSEGHLYTVPIREQGNIYKPNNKAMADELSEKQVYDAHTKEIDLVNRDPKHLNDDVVKIDFEDVIAEPEGTHSFDGIWKASFTTFTVTKYWFYRLLSALFGIPMALIWGIYFAILSFLHIWAVVPCIKSFLIEIQCISRVYSIYVHTVCDPLFEAVGKIFSNVRINLQKEI
notes: whole, on cells; Endogenous in cell extracts or full length expressed from pCMVpuro-CAV1 in COS-7 cells; also called CAV1; endogenous CAV1
B2: Cavin-2 (other, human, UniProt O95810 2-425, looked up)
chain: GEDAAQAEKFQHPGSDMRQEKPSSPSPMPSSTPSPSLNLGNTEEAIRDNSQVNAVTVLTLLDKLVNMLDAVQENQHKMEQRQISLEGSVKGIQNDLTKLSKYQASTSNTVSKLLEKSRKVSAHTRAVKERMDRQCAQVKRLENNHAQLLRRNHFKVLIFQEENEIPASVFVKQPVSGAVEGKEELPDENKSLEETLHTVDLSSDDDLPHDEEALEDSAEEKVEESRAEKIKRSSLKKVDSLKKAFSRQNIEKKMNKLGTKIVSVERREKIKKSLTSNHQKISSGKSSPFKVSPLTFGRKKVREGESHAENETKSEDLPSSEQMPNDQEEESFAEGHSEASLASALVEGEIAEEAAEKATSRGSNSGMDSNIDLTIVEDEEEESVALEQAQKVRYEGSYALTSEEAERSDGDPVQPAVLQVHQTS
notes: whole, on cells; Detected with anti-Cavin-2 (Abcam) in IP-WB of cell extracts
B3: human Cavin-1 (other, UniProt Q6NZI2 1-390, looked up)
chain: MEDPTLYIVERPLPGYPDAEAPEPSSAGAQAAEEPSGAGSEELIKSDQVNGVLVLSLLDKIIGAVDQIQLTQAQLEERQAEMEGAVQSIQGELSKLGKAHATTSNTVSKLLEKVRKVSVNVKTVRGSLERQAGQIKKLEVNEAELLRRRNFKVMIYQDEVKLPAKLSISKSLKESEALPEKEGEELGEGERPEEDAAALELSSDEAVEVEEVIEESRAERIKRSGLRRVDDFKKAFSKEKMEKTKVRTRENLEKTRLKTKENLEKTRHTLEKRMNKLGTRLVPAERREKLKTSRDKLRKSFTPDHVVYARSKTAVYKVPPFTFHVKKIREGQVEVLKATEMVEVGADDDEGGAERGEAGDLRRGSSPDVHALLEITEESDAVLVDKSDSD
notes: whole, on cells; Intracellular protein; endogenous in cell extracts or full length expressed from pCMVpuro-Cavin-1 in COS-7 cells; also called endogenous Cavin-1; pCMVpuro-Cavin-1-WT

How the values were obtained:
NCI-H1975 cells = conditions: cited from earlier work
PC-9 cells = conditions: cited from earlier work
PC-9 and NCI-H1975 = assay: Cell proliferation by colorimetry (cell counting kit-8) after siRNA transfection; type: cell-based, human; conditions: 120 hours after transfection
Procedure: Transfection of the siRNA (20 nM each) was conducted in accordance with the manufacturer's instruction manual using lipofectamine RNAiMAX (manufactured by Invitrogen). Cells were recovered 72 hours after transfection for Western blotting analysis. Cells were also recovered 120 hours after transfection for analysis by colorimetry to measure cell proliferation.
siControl or siROR1, siCavin-1, or siCAV1 was transfected against the PC-9 or NCI-H1975 cell line to investigate the effects of silencing of ROR1, Cavin-1, and CAV1 on cell proliferation. A reaction was conducted using a cell counting kit-8 (Dojindo) 120 hours after transfection, the absorbance was measured by a plate reader, and colorimetry was conducted. Furthermore, this experiment was conducted three separate times, and the average values were graphed.

CAV1 = assay: Western blotting of CAV1 expression after siRNA transfection in pulmonary adenocarcinoma cell lines; type: cell-based, human; conditions: siRNA 20 nM
Procedure: Western blotting analysis and IP-WB analysis were conducted by the standard methods using an Immobilon-P filter (manufactured by Millipore Corp.) and an enhanced chemiluminescence system (manufactured by GE Healthcare Inc.). pCMVpuro-Cavin-1-WT was coexpressed with various ROR1 expression constructs such as the wild type (WT), TKΔ473-564 (TKΔ1), TK564-655 (TKΔ2), TKΔ655-746 (TKΔ3), TKΔ473-655 (TKΔ1+×2), TKΔ564-746 (TKΔ2+Δ3), and TKΔ473-746 (TKA1+Δ2+A3) to identify the binding site of ROR1 and Cavin-1. pCMVpuro-CAV1-WT was coexpressed with ROR1 expression constructs such as the wild type (WT), TKΔ473-564 (TKΔ1), TKΔ564-655 (TKΔ2), TKΔ655-746 (TKΔ3), ST1Δ748-782 (ΔST1), PΔ784-851 (ΔP), and ST2Δ853 to 876 (ΔST2) to identify the binding site of ROR1 and CAV1. For these, the cells were recovered 24 hours after transfection by Fugene6 (Promega) using COS-7 cells, and IP-WB analysis was conducted.
Transfection of the siRNA (20 nM each) was conducted in accordance with the manufacturer's instruction manual using lipofectamine RNAiMAX (manufactured by Invitrogen). […] Cells were also recovered 120 hours after transfection for analysis by colorimetry to measure cell proliferation.

[1] = target: T1, human ROR1 (receptor tyrosine kinase-like orphan receptor 1) (human, UniProt Q01973 30-937); assay: IP-WB of ROR1 constructs coexpressed with CAV1 in COS-7 cells
T1 construct: whole, on cells; also called endogenous ROR1; ROR1-WT
Procedure: For these, the cells were recovered 24 hours after transfection by Fugene6 (Promega) using COS-7 cells, and IP-WB analysis was conducted.

human Cavin-1 = target: B3; assay: IP-WB of NCI-H1975 cell extract 24 hours after transfection of siROR1
[2] = target: T1, human ROR1 (receptor tyrosine …); assay: IP-WB of endogenous proteins in octyl glucoside cell extracts
[3] = target: T1, human ROR1 (receptor tyrosine …); assay: IP-WB of octyl glucoside extracts of NCI-H1975 and SK-LU-1 cells
[4] = NCI-H1975, 72 hours after transfection

T1 sequence (Q01973 30-937): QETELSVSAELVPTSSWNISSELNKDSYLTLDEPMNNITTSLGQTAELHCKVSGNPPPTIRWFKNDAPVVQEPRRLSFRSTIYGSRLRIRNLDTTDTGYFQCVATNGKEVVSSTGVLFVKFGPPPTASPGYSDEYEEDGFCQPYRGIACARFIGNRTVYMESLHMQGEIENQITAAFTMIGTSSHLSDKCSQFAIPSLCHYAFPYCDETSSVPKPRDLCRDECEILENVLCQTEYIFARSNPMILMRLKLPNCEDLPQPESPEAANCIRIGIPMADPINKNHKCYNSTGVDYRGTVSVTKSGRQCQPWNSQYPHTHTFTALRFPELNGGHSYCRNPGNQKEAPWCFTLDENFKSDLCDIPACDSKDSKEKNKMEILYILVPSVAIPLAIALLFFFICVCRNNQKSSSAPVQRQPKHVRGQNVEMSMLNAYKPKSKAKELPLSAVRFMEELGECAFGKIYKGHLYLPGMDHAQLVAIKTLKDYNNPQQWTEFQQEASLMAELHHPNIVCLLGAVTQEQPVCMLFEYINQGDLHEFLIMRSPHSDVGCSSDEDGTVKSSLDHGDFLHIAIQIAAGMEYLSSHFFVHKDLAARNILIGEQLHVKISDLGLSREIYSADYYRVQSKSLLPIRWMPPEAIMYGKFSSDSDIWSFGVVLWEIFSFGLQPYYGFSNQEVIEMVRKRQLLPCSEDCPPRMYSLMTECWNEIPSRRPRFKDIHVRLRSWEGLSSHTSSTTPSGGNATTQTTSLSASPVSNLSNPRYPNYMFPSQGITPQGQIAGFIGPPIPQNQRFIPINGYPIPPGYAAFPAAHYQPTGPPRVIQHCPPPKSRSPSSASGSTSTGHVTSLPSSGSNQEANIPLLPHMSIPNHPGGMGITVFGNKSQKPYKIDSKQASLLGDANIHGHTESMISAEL

Molecule: CC#CC(=O)Nc1ccc2ncnc(Nc3cccc(Br)c3)c2c1 [CL-387, 785]
- sensitivity of cells to EGFR-TKI (NCI-H1975 cells; NCI-H1975 in the presence of HGF): resistance

Molecule: COc1cc2ncnc(Nc3ccc(F)c(Cl)c3)c2cc1OCCCN1CCOCC1 [gefitinib, Gefitinib]
- sensitivity of cells to EGFR-TKI (PC-9 cells; PC-9, no ligand): sensitive
- sensitivity of cells to EGFR-TKI (PC-9 cells; PC-9 in the presence of HGF): resistance
- sensitivity of cells to EGFR-TKI (NCI-H1975 cells; NCI-H1975 (EGFR T790M double mutation), no ligand): resistance

Molecule: siCavin-1#1: RNA oligomer for RNAi against human Cavin-1, 5′-CUCCAAGACCGCGGUCUACAA-3′ (SEQ ID No: 18) (listed as RNA, further chemistry not given here)
- cell proliferation (colorimetry) (PC-9 and NCI-H1975): inhibit cell proliferation

Molecule: siCavin-1#2: RNA oligomer for RNAi against human Cavin-1, 5′-CCCGCCGAGCGGCGCGAGAAA-3′ (SEQ ID No: 19) (listed as RNA, further chemistry not given here)
- cell proliferation (colorimetry) (PC-9 and NCI-H1975): inhibit cell proliferation

Molecule: siIGF-IR#1: RNA oligomer for RNAi against human IGF-IR, 5′-GGAAUUGCAUGGUAGCCGAUU-3′ (SEQ ID No: 16) (listed as RNA, further chemistry not given here)
- CAV1 expression (Western blot) (CAV1; NCI-H358): downregulation of CAV1 was also found
- CAV1 expression (Western blot) (CAV1; [4]): downregulate CAV1

Molecule: siIGF-IR#2: RNA oligomer for RNAi against human IGF-IR, 5′-CUGACUACAGGGAUCUCAUUU-3′ (SEQ ID No: 17) (listed as RNA, further chemistry not given here)
- CAV1 expression (Western blot) (CAV1; NCI-H358): downregulation of CAV1 was also found
- CAV1 expression (Western blot) (CAV1; [4]): downregulate CAV1

Molecule: B1
- binding result [1]: binds
- binding result (human Cavin-1): binds

Molecule: B2
- binding result [2]: no binding

Molecule: B3
- binding result [3]: binds
